In BindingDB's records for doi:10.1016/j.bioorg.2013.06.006 (North-West University, Private Bag X6001, Potchefstroom …, 2013):

molecular target: Adenosine receptor A2a (Rattus norvegicus, UniProt P30543)
Sequence (P30543 whole entry): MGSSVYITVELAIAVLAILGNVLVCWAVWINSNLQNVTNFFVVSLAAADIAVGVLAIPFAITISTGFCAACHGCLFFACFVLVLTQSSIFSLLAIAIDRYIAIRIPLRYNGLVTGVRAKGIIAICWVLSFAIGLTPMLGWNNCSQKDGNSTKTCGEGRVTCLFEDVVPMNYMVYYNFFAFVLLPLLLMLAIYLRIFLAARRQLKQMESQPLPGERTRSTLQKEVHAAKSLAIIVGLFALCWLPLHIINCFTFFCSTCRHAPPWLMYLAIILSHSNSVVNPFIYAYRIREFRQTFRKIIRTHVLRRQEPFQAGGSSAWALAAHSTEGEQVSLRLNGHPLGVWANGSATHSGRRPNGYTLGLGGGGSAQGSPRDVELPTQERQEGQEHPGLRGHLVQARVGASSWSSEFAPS

Structure (SMILES) | Ki [nM]
CCn1c(=O)c2c(nc(/C=C/c3ccc(Br)cc3)n2C)n(CC)c1=O [(E)-8-(4-Bromostyryl)-1,3-diethyl-7-methylxanthine (6e)] | 28.9
CCn1c(=O)c2c(nc(COc3ccccc3)n2CC)n(CC)c1=O [8-Phenoxymethyl-1,3,7-triethylxanthine (8d)] | > 1000
CCn1c(=O)c2c(nc(/C=C/c3cccc(C(F)(F)F)c3)n2CC)n(CC)c1=O [(E)-8-[3-(Trifluoromethyl)styryl]-1,3,7-triethylxanthine (7f)] | > 1000
Cn1c(=O)c2c(nc(/C=C/c3ccc(Cl)c(Cl)c3)n2C)n(C)c1=O [(E)-8-(3,4-Dichlorostyryl)caffeine (4b)] | 44.8
CCn1c(/C=C/c2ccc(Cl)cc2)nc2c1c(=O)n(C)c(=O)n2C [(E)-8-(4-Chlorostyryl)-1,3-dimethyl-7-ethylxanthine (5b)] | 95.3
CCn1c(=O)c2c(nc(/C=C/c3cccc(Br)c3)n2CC)n(CC)c1=O [(E)-8-(3-Bromostyryl)-1,3,7-triethylxanthine (7d)] | 161
CCn1c(/C=C/c2cccc(Cl)c2)nc2c1c(=O)n(C)c(=O)n2C [(E)-8-(3-Chlorostyryl)-1,3-dimethyl-7-ethylxanthine (5a)] | 421
CCn1c(=O)c2c(nc(CCCc3ccccc3)n2C)n(CC)c1=O [8-(3-Phenylpropyl)-1,3-diethyl-7-methylxanthine (9c)] | > 1000
Cn1c(=O)c2c(nc(/C=C/c3ccc(Br)cc3)n2C)n(C)c1=O [(E)-8-(4-Bromostyryl)-1,3,7-trimethylxanthine (4d)] | 127
CCn1c(=O)c2c(nc(/C=C/c3cccc(Cl)c3)n2CC)n(CC)c1=O [(E)-8-(3-Chlorostyryl)-1,3,7-triethylxanthine (7a)] | > 1000
CCn1c(/C=C/c2cccc(Br)c2)nc2c1c(=O)n(C)c(=O)n2C [(E)-8-(3-Bromostyryl)-1,3-dimethyl-7-ethylxanthine (5d)] | 58.2
Cn1c(=O)c2c(nc(COc3ccccc3)n2C)n(C)c1=O | 137
Cn1c(=O)c2c(nc(/C=C/c3cccc(Br)c3)n2C)n(C)c1=O [(E)-8-(3-Bromostyryl)-1,3,7-trimethylxanthine (4c)] | 28.4
CCn1c(=O)c2c(nc(/C=C/c3ccc(Cl)c(Cl)c3)n2CC)n(CC)c1=O [(E)-8-(3,4-Dichlorostyryl)-1,3,7-triethylxanthine (7c)] | 428
CCn1c(=O)c2c(nc(/C=C/c3cccc(Cl)c3)n2C)n(CC)c1=O [(E)-8-(3-Chlorostyryl)-1,3-diethyl-7-methylxanthine (6a)] | 24.3
CCn1c(=O)c2c(nc(/C=C/c3ccc(Cl)cc3)n2CC)n(CC)c1=O [(E)-8-(4-Chlorostyryl)-1,3,7-triethylxanthine (7b)] | > 1000
Cn1c(=O)c2c(nc(CCCc3ccccc3)n2C)n(C)c1=O [8-(3-Phenylpropyl)-1,3,7-trimethylxanthine (9a)] | > 1000
CCn1c(COc2ccccc2)nc2c1c(=O)n(C)c(=O)n2C [8-Phenoxymethyl-1,3-dimethyl-7-ethylxantine (8b)] | > 1000
Cn1c(=O)c2c(nc(/C=C/c3cccc(C(F)(F)F)c3)n2C)n(C)c1=O | 125
CCn1c(=O)c2c(nc(/C=C/c3ccc(Br)cc3)n2CC)n(CC)c1=O [(E)-8-(4-Bromostyryl)-1,3,7-triethylxanthine (7e)] | 83
CCn1c(=O)c2c(nc(/C=C/c3cccc(C(F)(F)F)c3)n2C)n(CC)c1=O [(E)-8-[3-(Trifluoromethyl)styryl]-1,3-diethyl-7-methylxanthine (6f)] | 11.9
CCn1c(/C=C/c2ccc(Cl)c(Cl)c2)nc2c1c(=O)n(C)c(=O)n2C [(E)-8-(3,4-Dichlorostyryl)-1,3-dimethyl-7-ethylxanthine (5c)] | 32.9
CCn1c(/C=C/c2ccc(Br)cc2)nc2c1c(=O)n(C)c(=O)n2C [(E)-8-(4-Bromostyryl)-1,3-dimethyl-7-ethylxanthine (5e)] | 546
CCn1c(CCCc2ccccc2)nc2c1c(=O)n(C)c(=O)n2C [8-(3-Phenylpropyl)-1,3-dimethyl-7-ethylxanthine (9b)] | > 1000
CCn1c(=O)c2c(nc(CCCc3ccccc3)n2CC)n(CC)c1=O [8-(3-Phenylpropyl)-1,3,7-triethylxanthine (9d)] | > 1000
CCn1c(/C=C/c2cccc(C(F)(F)F)c2)nc2c1c(=O)n(C)c(=O)n2C [(E)-8-[3-(Trifluoromethyl)styryl]-1,3-dimethyl-7-ethylxanthine (5f)] | 93.8
Cn1c(=O)c2c(nc(/C=C/c3ccc(Cl)cc3)n2C)n(C)c1=O | 169
CCn1c(=O)c2c(nc(COc3ccccc3)n2C)n(CC)c1=O [8-Phenoxymethyl-1,3-diethyl-7-methylxanthine (8c)] | > 1000
CCn1c(=O)c2c(nc(/C=C/c3cccc(Br)c3)n2C)n(CC)c1=O [(E)-8-(3-Bromostyryl)-1,3-diethyl-7-methylxanthine (6d)] | 17.2
